≈ marks a conversion by molar mass, not a printed value.
Tested on: Mycobacterium tuberculosis
Assay: Antitubercular activity against drug-resistant Mycobacterium tuberculosis
Type: functional

| Structure (SMILES) | MIC |
| --- | --- |
| CN[C@@H]1[C@H](O)[C@H](NC)[C@H]2O[C@]3(O)[C@H](O[C@@H]2[C@H]1O)O[C@H](C)C[C@H]3NC(=O)Cc1ccccc1 | 1.6 µg/mL (≈ 3.54 µM) |
| CN[C@@H]1[C@H](O)[C@H](NC)[C@H]2O[C@]3(O)[C@H](O[C@@H]2[C@H]1O)O[C@H](C)C[C@H]3NC(=O)Cc1ccccn1 | 1.6 µg/mL (≈ 3.54 µM) |
| CN[C@@H]1[C@H](O)[C@H](NC)[C@H]2O[C@]3(O)[C@H](O[C@@H]2[C@H]1O)O[C@H](C)C[C@H]3NC(=O)Cc1ccc(Cl)cn1 | 1.6 µg/mL (≈ 3.29 µM) |
| CN[C@@H]1[C@H](O)[C@H](NC)[C@H]2O[C@]3(O)[C@H](O[C@@H]2[C@H]1O)O[C@H](C)C[C@H]3NC(=O)CNC(C)(C)C | 1.6 µg/mL (≈ 3.58 µM) |
| CN[C@@H]1[C@H](O)[C@H](NC)[C@H]2O[C@]3(O)[C@H](O[C@@H]2[C@H]1O)O[C@H](C)C[C@H]3NC(=O)Cc1cc(Cl)ccn1 | 1.6 µg/mL (≈ 3.29 µM) |
| CN[C@@H]1[C@H](O)[C@H](NC)[C@H]2O[C@]3(O)[C@H](O[C@@H]2[C@H]1O)O[C@H](C)C[C@H]3NC(=O)Cc1cscn1 | 1.6 µg/mL (≈ 3.49 µM) |
| CN[C@@H]1[C@H](O)[C@H](NC)[C@H]2O[C@]3(O)[C@H](O[C@@H]2[C@H]1O)O[C@H](C)C[C@H]3NC(=O)Cc1ccc(F)cn1 | 1.6 µg/mL (≈ 3.4 µM) |

Source: ChEMBL document CHEMBL3352027, “Pharmacologically active metabolites, combination screening and target identification-driven drug repositioning in antituberculosis drug discovery” (2014)
